These compounds were tested on A-375 (assay: cells). Settings: Homo sapiens.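 Also: growth inhibition of A375 cells, read out with a cell viability assay.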
Assay type: functional, cell-based
Description: SANGER: Inhibition of human A375 cell growth in a cell viability assay.
For `CS(=O)(=O)N1CCN(Cc2cc3nc(-c4cccc5[nH]ncc45)nc(N4CCOCC4)c3s2)CC1` [PICTILISIB], the IC50 was > 4 µM.

These compounds were tested on PA-1 (assay: cells). Settings: Homo sapiens.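 Also: IC50 for suppression of PA-1 cell proliferation, determined with a cell viability read-out.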
Assay type: functional, cell-based
Description: SANGER: Inhibition of human PA-1 cell growth in a cell viability assay.
In the case of `CS(=O)(=O)N1CCN(Cc2cc3nc(-c4cccc5[nH]ncc45)nc(N4CCOCC4)c3s2)CC1` [PICTILISIB], the IC50 is reported as 0.532 µM.

What follows are compounds tested on HT-29 (assay: cells). Settings: Homo sapiens.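 Also: growth inhibition of human HT-29 cells, read out by a cell viability assay.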
Assay type: functional, cell-based
Description: SANGER: Inhibition of human HT-29 cell growth in a cell viability assay.
In the case of `CS(=O)(=O)N1CCN(Cc2cc3nc(-c4cccc5[nH]ncc45)nc(N4CCOCC4)c3s2)CC1` [PICTILISIB], the IC50 is reported as > 4 µM.

The compounds below were run on HCT-116 (assay: cells). Settings: Homo sapiens.
Assay type: functional, cell-based
Description: SANGER: Inhibition of human HCT-116 cell growth in a cell viability assay.
`CS(=O)(=O)N1CCN(Cc2cc3nc(-c4cccc5[nH]ncc45)nc(N4CCOCC4)c3s2)CC1` [PICTILISIB] was tested, and the IC50 was > 4 µM.

The compounds below were run on CAL-85-1 (assay: cells). Settings: Homo sapiens.
Assay type: functional, cell-based
Description: SANGER: Inhibition of human CAL-85-1 cell growth in a cell viability assay.
`CS(=O)(=O)N1CCN(Cc2cc3nc(-c4cccc5[nH]ncc45)nc(N4CCOCC4)c3s2)CC1` [PICTILISIB] was tested, and the IC50 was > 4 µM.

These compounds were tested on NCI-H596 (assay: cells). Settings: Homo sapiens.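 Also: growth inhibition of NCI-H596 cells, read out with a cell viability assay.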
Assay type: functional, cell-based
Description: SANGER: Inhibition of human NCI-H596 cell growth in a cell viability assay.
With `CS(=O)(=O)N1CCN(Cc2cc3nc(-c4cccc5[nH]ncc45)nc(N4CCOCC4)c3s2)CC1` [PICTILISIB] the IC50 was > 4 µM.

The compounds below were run on KYSE-150 cell line (assay: cells). Settings: Homo sapiens.
Assay type: functional, cell-based
Description: SANGER: Inhibition of human KYSE-150 cell growth in a cell viability assay.
For `CS(=O)(=O)N1CCN(Cc2cc3nc(-c4cccc5[nH]ncc45)nc(N4CCOCC4)c3s2)CC1` [PICTILISIB], the IC50 was > 4 µM.

The compounds below were run on UMUC3 (assay: cells). Settings: Homo sapiens.
Assay type: functional, cell-based
Description: SANGER: Inhibition of human UM-UC-3 cell growth in a cell viability assay.
In the case of `CS(=O)(=O)N1CCN(Cc2cc3nc(-c4cccc5[nH]ncc45)nc(N4CCOCC4)c3s2)CC1` [PICTILISIB], the IC50 is reported as > 4 µM.

What follows are compounds tested on SK-HEP1 (assay: cells). Settings: Homo sapiens.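 Also: cell viability readout used to quantify reduction in proliferation of human SK-HEP-1 cells.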
Assay type: functional, cell-based, SK-HEP-1
Description: SANGER: Inhibition of human SK-HEP-1 cell growth in a cell viability assay.
`CS(=O)(=O)N1CCN(Cc2cc3nc(-c4cccc5[nH]ncc45)nc(N4CCOCC4)c3s2)CC1` [PICTILISIB] was tested, and the IC50 was > 4 µM.

What follows are compounds tested on LN-405 (assay: cells). Settings: Homo sapiens.
Assay type: functional, cell-based
Description: SANGER: Inhibition of human LN-405 cell growth in a cell viability assay.
`CS(=O)(=O)N1CCN(Cc2cc3nc(-c4cccc5[nH]ncc45)nc(N4CCOCC4)c3s2)CC1` [PICTILISIB] was tested, and the IC50 was > 4 µM.

What follows are compounds tested on YKG-1 (assay: cells). Settings: Homo sapiens.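 Also: cell growth inhibition, read out with a viability assay.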
Assay type: functional, cell-based
Description: SANGER: Inhibition of human YKG-1 cell growth in a cell viability assay.
With `CS(=O)(=O)N1CCN(Cc2cc3nc(-c4cccc5[nH]ncc45)nc(N4CCOCC4)c3s2)CC1` [PICTILISIB] the IC50 was 3.04 µM.

These compounds were tested on HCC1937 (assay: cells). Settings: Homo sapiens.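 Also: growth inhibition measured with a cell viability read-out.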
Assay type: functional, cell-based
Description: SANGER: Inhibition of human HCC1937 cell growth in a cell viability assay.
For `CS(=O)(=O)N1CCN(Cc2cc3nc(-c4cccc5[nH]ncc45)nc(N4CCOCC4)c3s2)CC1` [PICTILISIB], the IC50 was > 4 µM.

The compounds below were run on BXPC-3 (assay: cells). Settings: Homo sapiens.
Assay type: functional, cell-based
Description: SANGER: Inhibition of human BxPC-3 cell growth in a cell viability assay.
In the case of `CS(=O)(=O)N1CCN(Cc2cc3nc(-c4cccc5[nH]ncc45)nc(N4CCOCC4)c3s2)CC1` [PICTILISIB], the IC50 is reported as > 4 µM.

Each compound was assayed on BPH-1 (assay: cells). Settings: Homo sapiens.
Assay type: functional, cell-based
Description: SANGER: Inhibition of human BPH-1 cell growth in a cell viability assay.
Compound `CS(=O)(=O)N1CCN(Cc2cc3nc(-c4cccc5[nH]ncc45)nc(N4CCOCC4)c3s2)CC1` [PICTILISIB] has an IC50 of 0.314 µM.

What follows are compounds tested on VM-CUB-1 (assay: cells). Settings: Homo sapiens.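 Also: cell viability assay measuring growth inhibition of the human VM-CUB-1 cell line.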
Assay type: functional, cell-based
Description: SANGER: Inhibition of human VM-CUB-1 cell growth in a cell viability assay.
For `CS(=O)(=O)N1CCN(Cc2cc3nc(-c4cccc5[nH]ncc45)nc(N4CCOCC4)c3s2)CC1` [PICTILISIB], the IC50 was > 4 µM.

Each compound was assayed on SK-MEL-24 (assay: cells). Settings: Homo sapiens.
Assay type: functional, cell-based
Description: SANGER: Inhibition of human SK-MEL-24 cell growth in a cell viability assay.
`CS(=O)(=O)N1CCN(Cc2cc3nc(-c4cccc5[nH]ncc45)nc(N4CCOCC4)c3s2)CC1` [PICTILISIB] was tested, and the IC50 was > 4 µM.

Each compound was assayed on G-402 (assay: cells). Settings: Homo sapiens.
Assay type: functional, cell-based
Description: SANGER: Inhibition of human G-402 cell growth in a cell viability assay.
`CS(=O)(=O)N1CCN(Cc2cc3nc(-c4cccc5[nH]ncc45)nc(N4CCOCC4)c3s2)CC1` [PICTILISIB] showed an IC50 of 1.9 µM.

The compounds below were run on KYSE-140 (assay: cells). Settings: Homo sapiens.
Assay type: functional, cell-based
Description: SANGER: Inhibition of human KYSE-140 cell growth in a cell viability assay.
For `CS(=O)(=O)N1CCN(Cc2cc3nc(-c4cccc5[nH]ncc45)nc(N4CCOCC4)c3s2)CC1` [PICTILISIB], the IC50 was > 4 µM.

These compounds were tested on KYSE-510 (assay: cells). Settings: Homo sapiens.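 Also: cell viability readout used to measure how strongly growth of the cell line is suppressed.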
Assay type: functional, cell-based
Description: SANGER: Inhibition of human KYSE-510 cell growth in a cell viability assay.
For `CS(=O)(=O)N1CCN(Cc2cc3nc(-c4cccc5[nH]ncc45)nc(N4CCOCC4)c3s2)CC1` [PICTILISIB], the IC50 was > 4 µM.

The compounds below were run on SW13 (assay: cells). Settings: Homo sapiens.
Assay type: functional, cell-based
Description: SANGER: Inhibition of human SW13 cell growth in a cell viability assay.
For `CS(=O)(=O)N1CCN(Cc2cc3nc(-c4cccc5[nH]ncc45)nc(N4CCOCC4)c3s2)CC1` [PICTILISIB], the IC50 was > 4 µM.

The compounds below were run on NCI-H1793 (assay: cells). Settings: Homo sapiens.
Assay type: functional, cell-based
Description: SANGER: Inhibition of human NCI-H1793 cell growth in a cell viability assay.
For `CS(=O)(=O)N1CCN(Cc2cc3nc(-c4cccc5[nH]ncc45)nc(N4CCOCC4)c3s2)CC1` [PICTILISIB], the IC50 was > 4 µM.

Each compound was assayed on NCI-H2452 (assay: cells). Settings: Homo sapiens.
Assay type: functional, cell-based
Description: SANGER: Inhibition of human NCI-H2452 cell growth in a cell viability assay.
In the case of `CS(=O)(=O)N1CCN(Cc2cc3nc(-c4cccc5[nH]ncc45)nc(N4CCOCC4)c3s2)CC1` [PICTILISIB], the IC50 is reported as > 4 µM.

Each compound was assayed on NCI-H661 (assay: cells). Settings: Homo sapiens.
Assay type: functional, cell-based
Description: SANGER: Inhibition of human NCI-H661 cell growth in a cell viability assay.
For `CS(=O)(=O)N1CCN(Cc2cc3nc(-c4cccc5[nH]ncc45)nc(N4CCOCC4)c3s2)CC1` [PICTILISIB], the IC50 was > 4 µM.

What follows are compounds tested on CAL-54 (assay: cells). Settings: Homo sapiens.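 Also: growth inhibition of CAL-54 cells, read out by a viability measurement.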
Assay type: functional, cell-based
Description: SANGER: Inhibition of human CAL-54 cell growth in a cell viability assay.
In the case of `CS(=O)(=O)N1CCN(Cc2cc3nc(-c4cccc5[nH]ncc45)nc(N4CCOCC4)c3s2)CC1` [PICTILISIB], the IC50 is reported as 1.07 µM.

These compounds were tested on C-33-A (assay: cells). Settings: Homo sapiens.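 Also: cell viability assay measuring growth inhibition of C-33-A cells.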
Assay type: functional, cell-based
Description: SANGER: Inhibition of human C-33-A cell growth in a cell viability assay.
For `CS(=O)(=O)N1CCN(Cc2cc3nc(-c4cccc5[nH]ncc45)nc(N4CCOCC4)c3s2)CC1` [PICTILISIB], the IC50 was > 4 µM.

These compounds were tested on JEG-3 (assay: cells). Settings: Homo sapiens.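 Also: growth inhibition of human JEG-3 cells, read out with a cell viability assay.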
Assay type: functional, cell-based
Description: SANGER: Inhibition of human JEG-3 cell growth in a cell viability assay.
With `CS(=O)(=O)N1CCN(Cc2cc3nc(-c4cccc5[nH]ncc45)nc(N4CCOCC4)c3s2)CC1` [PICTILISIB] the IC50 was > 4 µM.

Each compound was assayed on DMS-273 (assay: cells). Settings: Homo sapiens.
Assay type: functional, cell-based
Description: SANGER: Inhibition of human DMS-273 cell growth in a cell viability assay.
`CS(=O)(=O)N1CCN(Cc2cc3nc(-c4cccc5[nH]ncc45)nc(N4CCOCC4)c3s2)CC1` [PICTILISIB] was tested, and the IC50 was 2.86 µM.

These compounds were tested on CAL-51 (assay: cells). Settings: Homo sapiens.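 Also: human CAL-51 cell line, growth inhibition read out via a cell viability assay.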
Assay type: functional, cell-based
Description: SANGER: Inhibition of human CAL-51 cell growth in a cell viability assay.
For `CS(=O)(=O)N1CCN(Cc2cc3nc(-c4cccc5[nH]ncc45)nc(N4CCOCC4)c3s2)CC1` [PICTILISIB], the IC50 was > 4 µM.

Each compound was assayed on NCI-H2122 (assay: cells). Settings: Homo sapiens.
Assay type: functional, cell-based
Description: SANGER: Inhibition of human NCI-H2122 cell growth in a cell viability assay.
With `CS(=O)(=O)N1CCN(Cc2cc3nc(-c4cccc5[nH]ncc45)nc(N4CCOCC4)c3s2)CC1` [PICTILISIB] the IC50 was > 4 µM.

These compounds were tested on ME-180 (assay: cells). Settings: Homo sapiens.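 Also: cell viability assay measuring growth inhibition of ME-180 cells.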
Assay type: functional, cell-based
Description: SANGER: Inhibition of human ME-180 cell growth in a cell viability assay.
With `CS(=O)(=O)N1CCN(Cc2cc3nc(-c4cccc5[nH]ncc45)nc(N4CCOCC4)c3s2)CC1` [PICTILISIB] the IC50 was 1.93 µM.

These compounds were tested on HCC 2998 (assay: cells). Settings: Homo sapiens.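 Also: growth inhibition of human HCC2998 cells, measured with a cell viability read-out.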
Assay type: functional, cell-based
Description: SANGER: Inhibition of human HCC2998 cell growth in a cell viability assay.
With `CS(=O)(=O)N1CCN(Cc2cc3nc(-c4cccc5[nH]ncc45)nc(N4CCOCC4)c3s2)CC1` [PICTILISIB] the IC50 was > 4 µM.

The compounds below were run on A2780 (assay: cells). Settings: Homo sapiens.
Assay type: functional, cell-based
Description: SANGER: Inhibition of human A2780 cell growth in a cell viability assay.
In the case of `CS(=O)(=O)N1CCN(Cc2cc3nc(-c4cccc5[nH]ncc45)nc(N4CCOCC4)c3s2)CC1` [PICTILISIB], the IC50 is reported as > 4 µM.

What follows are compounds tested on HSC-2 (assay: cells). Settings: Homo sapiens.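 Also: growth inhibition of human HSC-2 cells, read out by a cell viability assay.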
Assay type: functional, cell-based
Description: SANGER: Inhibition of human HSC-2 cell growth in a cell viability assay.
For `CS(=O)(=O)N1CCN(Cc2cc3nc(-c4cccc5[nH]ncc45)nc(N4CCOCC4)c3s2)CC1` [PICTILISIB], the IC50 was > 4 µM.

These compounds were tested on SW1573 (assay: cells). Settings: Homo sapiens.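 Also: growth inhibition of SW1573 cells, read out with a cell viability assay.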
Assay type: functional, cell-based
Description: SANGER: Inhibition of human SW1573 cell growth in a cell viability assay.
`CS(=O)(=O)N1CCN(Cc2cc3nc(-c4cccc5[nH]ncc45)nc(N4CCOCC4)c3s2)CC1` [PICTILISIB] showed an IC50 of 3.75 µM.

These compounds were tested on ABC-1 (assay: cells). Settings: Homo sapiens.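 Also: growth inhibition of human ABC-1 cells, read out by a cell viability assay.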
Assay type: functional, cell-based
Description: SANGER: Inhibition of human ABC-1 cell growth in a cell viability assay.
In the case of `CS(=O)(=O)N1CCN(Cc2cc3nc(-c4cccc5[nH]ncc45)nc(N4CCOCC4)c3s2)CC1` [PICTILISIB], the IC50 is reported as > 4 µM.

Each compound was assayed on GCT (assay: cells). Settings: Homo sapiens.
Assay type: functional, cell-based
Description: SANGER: Inhibition of human GCT cell growth in a cell viability assay.
In the case of `CS(=O)(=O)N1CCN(Cc2cc3nc(-c4cccc5[nH]ncc45)nc(N4CCOCC4)c3s2)CC1` [PICTILISIB], the IC50 is reported as > 4 µM.

What follows are compounds tested on FTC-133 (assay: cells). Settings: Homo sapiens.
Assay type: functional, cell-based
With `CS(=O)(=O)N1CCN(Cc2cc3nc(-c4cccc5[nH]ncc45)nc(N4CCOCC4)c3s2)CC1` [PICTILISIB] the IC50 was > 4 µM.

These compounds were tested on A673 (assay: cells). Settings: Homo sapiens.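 Also: growth inhibition of human A673 cells, read out through a cell viability assay.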
Assay type: functional, cell-based
Description: SANGER: Inhibition of human A673 cell growth in a cell viability assay.
In the case of `CS(=O)(=O)N1CCN(Cc2cc3nc(-c4cccc5[nH]ncc45)nc(N4CCOCC4)c3s2)CC1` [PICTILISIB], the IC50 is reported as > 4 µM.

Each compound was assayed on NCI-H1651 (assay: cells). Settings: Homo sapiens.
Assay type: functional, cell-based
Description: SANGER: Inhibition of human NCI-H1651 cell growth in a cell viability assay.
`CS(=O)(=O)N1CCN(Cc2cc3nc(-c4cccc5[nH]ncc45)nc(N4CCOCC4)c3s2)CC1` [PICTILISIB] was tested, and the IC50 was > 4 µM.

What follows are compounds tested on MKN-7 (assay: cells). Settings: Homo sapiens.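 Also: growth inhibition of MKN-7 cells, read out with a cell viability assay.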
Assay type: functional, cell-based
Description: SANGER: Inhibition of human MKN7 cell growth in a cell viability assay.
Compound `CS(=O)(=O)N1CCN(Cc2cc3nc(-c4cccc5[nH]ncc45)nc(N4CCOCC4)c3s2)CC1` [PICTILISIB] has an IC50 of 2.71 µM.

Each compound was assayed on SW1783 (assay: cells). Settings: Homo sapiens.
Assay type: functional, cell-based
Description: SANGER: Inhibition of human SW1783 cell growth in a cell viability assay.
`CS(=O)(=O)N1CCN(Cc2cc3nc(-c4cccc5[nH]ncc45)nc(N4CCOCC4)c3s2)CC1` [PICTILISIB] was tested, and the IC50 was > 4 µM.

What follows are compounds tested on 786-0 (assay: cells). Settings: Homo sapiens.
Assay type: functional, cell-based
Description: SANGER: Inhibition of human 786-0 cell growth in a cell viability assay.
`CS(=O)(=O)N1CCN(Cc2cc3nc(-c4cccc5[nH]ncc45)nc(N4CCOCC4)c3s2)CC1` [PICTILISIB] showed an IC50 of 2.59 µM.

The compounds below were run on CAL-33 (assay: cells). Settings: Homo sapiens.
Assay type: functional, cell-based
Description: SANGER: Inhibition of human CAL-33 cell growth in a cell viability assay.
In the case of `CS(=O)(=O)N1CCN(Cc2cc3nc(-c4cccc5[nH]ncc45)nc(N4CCOCC4)c3s2)CC1` [PICTILISIB], the IC50 is reported as > 4 µM.

The compounds below were run on NCI-H2030 (assay: cells). Settings: Homo sapiens.
Assay type: functional, cell-based
Description: SANGER: Inhibition of human NCI-H2030 cell growth in a cell viability assay.
`CS(=O)(=O)N1CCN(Cc2cc3nc(-c4cccc5[nH]ncc45)nc(N4CCOCC4)c3s2)CC1` [PICTILISIB] was tested, and the IC50 was 2.24 µM.
